Test results from PMC10913730, “Antimicrobial activity of a natural compound and analogs against multi-drug-resistant Gram-positive pathogens” (Microbiology Spectrum, 2024).
≈ marks a conversion by molar mass, not a printed value. Read-outs that look alike come from different tables or passages of the source.

Key:
[1] = system: human bronchial epithelial (16HBE) cells; test: alamarBlue cell viability assay, 16HBE; settings: 24-hour incubation, non-linear regression
[2] = system: Pseudomonas aeruginosa; test: MIC against Pseudomonas aeruginosa; assay type: cell-based
[3] = system: MRSA isolates; test: MIC/MBC, CLSI broth microdilution, MRSA isolates; assay type: cell-based, Staphylococcus aureus
[4] = system: MRSA isolate SAD05 biofilms; assay type: cell-based, Staphylococcus aureus
[5] = system: Staphylococcus epidermidis isolates; test: microbe, parasite or virus in culture; assay type: cell-based; settings: 21 Staphylococcus epidermidis isolates
[6] = pH and Ka of 10-g/L aqueous solutions (pH meter); assay type: physicochemical; settings: 10-g/L solution in distilled, deionized water
[7] = system: erythrocytes (sheep blood); test: Hemolytic activity against sheep erythrocytes; settings: higher than MIC90
[8] = system: human dermal fibroblast (HDF) cells; test: alamarBlue cell viability assay, HDF; settings: HDFs, 24-hour incubation, non-linear regression
[9] = system: Streptococcus pyogenes; test: MIC/MBC against Streptococcus pyogenes; assay type: cell-based; settings: for MBC: Streptococcus pyogenes
[10] = system: Enterococcus faecalis; test: MIC/MBC against Enterococcus faecalis; assay type: cell-based
[11] = Staphylococcus aureus, MRSA, pH 5.5, MRSA 0606, pH 5.5
[12] = Staphylococcus aureus, MRSA, pH 5.5, MRSA 0608, pH 5.5
[13] = Staphylococcus aureus, MRSA, pH 5.5, MRSA 0634, pH 5.5
[14] = Staphylococcus aureus, MRSA, pH 5.5, MRSA 0641, pH 5.5
[15] = Staphylococcus aureus, MRSA, pH 5.5, MRSA 0646, pH 5.5
[16] = Staphylococcus aureus, MRSA, pH 5.5, TCH 1516, pH 5.5
[17] = Staphylococcus aureus, MRSA, pH 6.5, MRSA 0606, pH 6.5
[18] = Staphylococcus aureus, MRSA, pH 6.5, MRSA 0608, pH 6.5
[19] = Staphylococcus aureus, MRSA, pH 6.5, MRSA 0634, pH 6.5
[20] = Staphylococcus aureus, MRSA, pH 6.5, MRSA 0641, pH 6.5
[21] = Staphylococcus aureus, MRSA, pH 6.5, MRSA 0646, pH 6.5
[22] = Staphylococcus aureus, MRSA, pH 6.5, TCH 1516, pH 6.5
[23] = Streptococcus pyogenes (NR1571)
[24] = ATCC49532, Enterococcus faecalis (ATCC 49532)
[25] = ATCC51575, Enterococcus faecalis (ATCC 51575)

Oc1c(Br)cc(Br)cc1-c1cc(Br)cc(Br)c1O [C58, MC21-A]
LD50 [1]: 59.3 µg/mL
MIC ([2]; Pseudomonas aeruginosa (PAM57-15)): > 32 µg/mL
MIC ([2]; Pseudomonas aeruginosa (PAO1)): > 32 µg/mL
MBC ([3]; MRSA 0606, pH 7.4): 6 µg/mL (≈ 12 µM)
MIC ([3]; MRSA 0606, pH 7.4): 2 µg/mL (≈ 3.99 µM)
MBC ([3]; MRSA 0608, pH 7.4): 4 µg/mL (≈ 7.97 µM)
MIC ([3]; MRSA 0608, pH 7.4): 2 µg/mL (≈ 3.99 µM)
MBC ([3]; MRSA 0634, pH 7.4): 2 µg/mL (≈ 3.99 µM)
MIC ([3]; MRSA 0634, pH 7.4): 2 µg/mL (≈ 3.99 µM)
MBC ([3]; MRSA 0641, pH 7.4): 4 µg/mL (≈ 7.97 µM)
MIC ([3]; MRSA 0641, pH 7.4): 2 µg/mL (≈ 3.99 µM)
MBC ([3]; MRSA 0646, pH 7.4): 4 µg/mL (≈ 7.97 µM)
MIC ([3]; MRSA 0646, pH 7.4): 2 µg/mL (≈ 3.99 µM)
MIC90 ([3]; Staphylococcus aureus, MRSA): 2 µg/mL (≈ 3.99 µM)
MBC [3, 11]: 0.5 µg/mL (≈ 0.996 µM)
MIC [3, 11]: 0.5 µg/mL (≈ 0.996 µM)
MBC [3, 12]: 0.5 µg/mL (≈ 0.996 µM)
MIC [3, 12]: 0.5 µg/mL (≈ 0.996 µM)
MBC [3, 13]: 0.5 µg/mL (≈ 0.996 µM)
MIC [3, 13]: 0.5 µg/mL (≈ 0.996 µM)
MBC [3, 14]: 0.5 µg/mL (≈ 0.996 µM)
MIC [3, 14]: 0.5 µg/mL (≈ 0.996 µM)
MBC [3, 15]: 1 µg/mL (≈ 1.99 µM)
MIC [3, 15]: 0.5 µg/mL (≈ 0.996 µM)
MBC [3, 16]: 1 µg/mL (≈ 1.99 µM)
MIC [3, 16]: 1 µg/mL (≈ 1.99 µM)
MBC ([3]; Staphylococcus aureus, MRSA, pH 5.5, read-out: Average MBC, average of six MRSA isolates, pH 5.5): 0.67 µg/mL (≈ 1.34 µM)
MIC ([3]; Staphylococcus aureus, MRSA, pH 5.5, read-out: Average MIC, average of six MRSA isolates, pH 5.5): 0.58 µg/mL (≈ 1.16 µM)
MBC [3, 17]: 2 µg/mL (≈ 3.99 µM)
MIC [3, 17]: 1 µg/mL (≈ 1.99 µM)
MBC [3, 18]: 2 µg/mL (≈ 3.99 µM)
MIC [3, 18]: 2 µg/mL (≈ 3.99 µM)
MBC [3, 19]: 2 µg/mL (≈ 3.99 µM)
MIC [3, 19]: 1 µg/mL (≈ 1.99 µM)
MBC [3, 20]: 2 µg/mL (≈ 3.99 µM)
MIC [3, 20]: 1 µg/mL (≈ 1.99 µM)
MBC [3, 21]: 2 µg/mL (≈ 3.99 µM)
MIC [3, 21]: 1 µg/mL (≈ 1.99 µM)
MBC [3, 22]: 2 µg/mL (≈ 3.99 µM)
MIC [3, 22]: 1 µg/mL (≈ 1.99 µM)
MBC ([3]; Staphylococcus aureus, MRSA, pH 6.5, read-out: Average MBC, average of six MRSA isolates, pH 6.5): 2 µg/mL (≈ 3.99 µM)
MIC ([3]; Staphylococcus aureus, MRSA, pH 6.5, read-out: Average MIC, average of six MRSA isolates, pH 6.5): 1.2 µg/mL (≈ 2.39 µM)
MBC ([3]; Staphylococcus aureus, MRSA, pH 7.4, read-out: Average MBC, average of six MRSA isolates, pH 7.4): 4 µg/mL (≈ 7.97 µM)
MIC ([3]; Staphylococcus aureus, MRSA, pH 7.4, read-out: Average MIC, average of six MRSA isolates, pH 7.4): 2 µg/mL (≈ 3.99 µM)
MBC ([3]; Staphylococcus aureus, MRSA, read-out: MBC90, 39 evaluated MRSA isolates, CLSI broth microdilution): 4 µg/mL (≈ 7.97 µM)
MBC ([3]; TCH 1516, pH 7.4): 4 µg/mL (≈ 7.97 µM)
MIC ([3]; TCH 1516, pH 7.4): 2 µg/mL (≈ 3.99 µM)
change of MIC and MBC with the reduction in pH ([3]; six MRSA isolates, pH lowered to 5.5): decreased as much as fourfold
concentration that completely eradicated biofilms ([4]; 72-hour biofilms of SAD05, MBEC assay): 8 µg/mL
biofilm biomass, crystal violet assay ([4]; SAD05 biofilms, compared with vancomycin): lower biomass
MBC range [5]: 4 to 12 µg/mL
MIC range [5]: 1 to 4 µg/mL
MBC ([5]; read-out: MBC90): 8 µg/mL (≈ 15.9 µM)
MIC90 ([5]; read-out: MIC90): 2 µg/mL (≈ 3.99 µM)
acid dissociation constant (Ka) [6]: 1.26 × 10^−12
pH of solution ([6]; room temperature): 6.80
concentration where hemolytic activity begins relative to MIC90 [7]: 32 fold
LD50 [8]: 71.3 µg/mL
MIC [9, 23]: 4 µg/mL (≈ 7.97 µM)
MIC ([9]; Streptococcus pyogenes (NR1575), read-out: MIC): 4 µg/mL (≈ 7.97 µM)
MBC [9, 23]: 16 µg/mL (≈ 31.9 µM)
MBC ([9]; Streptococcus pyogenes (NR1575)): 12 µg/mL (≈ 23.9 µM)
MBC [10, 24]: 12 µg/mL (≈ 23.9 µM)
MIC [10, 24]: 6 µg/mL (≈ 12 µM)
MBC [10, 25]: 12 µg/mL (≈ 23.9 µM)
MIC [10, 25]: 6 µg/mL (≈ 12 µM)
